Results reported in ChEMBL document CHEMBL1649134, “Occurrence of efflux mechanism and cephalosporinase variant in a population of Enterobacter aerogenes and Klebsiella pneumoniae isolates producing extended-spectrum beta-lactamases” (2009).
Values after ≈ are worked out from the molar mass of the structure shown.

Legend:
[1] = system: Klebsiella aerogenes; assay: Antimicrobial activity against multidrug resistant Enterobacter aerogenes isolate 12 by broth dilution method; assay type: functional
[2] = system: Klebsiella aerogenes; assay: Antimicrobial activity against multidrug resistant Enterobacter aerogenes isolate 6 by broth dilution method; assay type: functional
[3] = system: Klebsiella pneumoniae; assay: Antimicrobial activity against multidrug resistant Klebsiella pneumoniae isolate 11 by broth dilution method; assay type: functional
[4] = system: Klebsiella aerogenes; assay: Antimicrobial activity against multidrug resistant Enterobacter aerogenes isolate 8 by broth dilution method; assay type: functional
[5] = system: Klebsiella aerogenes; assay: Antimicrobial activity against multidrug resistant Enterobacter aerogenes ATCC 15038 harboring pDrive plasmid by broth dilution method; assay type: functional
[6] = system: Klebsiella pneumoniae; assay: Antimicrobial activity against multidrug resistant Klebsiella pneumoniae isolate 10 by broth dilution method; assay type: functional
[7] = system: Klebsiella aerogenes; assay: Antimicrobial activity against multidrug resistant Enterobacter aerogenes isolate 15 by broth dilution method; assay type: functional
[8] = system: Klebsiella aerogenes; assay: Antimicrobial activity against multidrug resistant Enterobacter aerogenes isolate 16 by broth dilution method; assay type: functional
[9] = system: Klebsiella aerogenes; assay: Antimicrobial activity against multidrug resistant Enterobacter aerogenes isolate 21 by broth dilution method; assay type: functional
[10] = system: Escherichia coli; assay: microbe, parasite or virus in culture; settings: DH5[alpha]
Description: Antimicrobial activity against multidrug resistant Escherichia coli DH5[alpha] harboring pDrive plasmid expressing ampC gene by broth dilution method

[11] = system: Klebsiella aerogenes; assay: Antimicrobial activity against multidrug resistant Enterobacter aerogenes isolate 1 by broth dilution method; assay type: functional
[12] = system: Klebsiella aerogenes; assay: Antimicrobial activity against multidrug resistant Enterobacter aerogenes isolate 14 by broth dilution method; assay type: functional
[13] = system: Klebsiella pneumoniae; assay: Antimicrobial activity against multidrug resistant Klebsiella pneumoniae isolate 7 by broth dilution method; assay type: functional
[14] = system: Klebsiella pneumoniae; assay: Antimicrobial activity against multidrug resistant Klebsiella pneumoniae isolate 2 by broth dilution method; assay type: functional
[15] = system: Klebsiella aerogenes; assay: Antimicrobial activity against multidrug resistant Enterobacter aerogenes isolate 26 by broth dilution method; assay type: functional
[16] = system: Klebsiella aerogenes; assay: Antimicrobial activity against multidrug resistant Enterobacter aerogenes isolate 20 by broth dilution method; assay type: functional
[17] = system: Klebsiella pneumoniae; assay: Antimicrobial activity against multidrug resistant Klebsiella pneumoniae isolate 3 by broth dilution method; assay type: functional
[18] = system: Escherichia coli; assay: microbe, parasite or virus in culture; settings: DH5[alpha]; remark: listed apart in the source
Description: Antimicrobial activity against multidrug resistant Escherichia coli DH5[alpha] harboring pDrive plasmid by broth dilution method

[19] = system: Klebsiella aerogenes; assay: Antimicrobial activity against multidrug resistant Enterobacter aerogenes isolate 11 by broth dilution method; assay type: functional
[20] = system: Klebsiella pneumoniae; assay: Antimicrobial activity against multidrug resistant Klebsiella pneumoniae isolate 12 by broth dilution method; assay type: functional
[21] = system: Klebsiella aerogenes; assay: Antimicrobial activity against multidrug resistant Enterobacter aerogenes ATCC 15038 harboring pACM204 plasmid by broth dilution method; assay type: functional
[22] = system: Klebsiella aerogenes; assay: Antimicrobial activity against multidrug resistant Enterobacter aerogenes isolate 27 by broth dilution method; assay type: functional
[23] = system: Klebsiella aerogenes; assay: Antimicrobial activity against multidrug resistant Enterobacter aerogenes isolate 23 by broth dilution method; assay type: functional
[24] = system: Escherichia coli; assay: Antimicrobial activity against multidrug resistant Escherichia coli ATCC 35218 by broth dilution method; assay type: functional
[25] = system: Klebsiella aerogenes; assay: Antimicrobial activity against multidrug resistant Enterobacter aerogenes isolate 4 by broth dilution method; assay type: functional
[26] = system: Klebsiella pneumoniae; assay: Antimicrobial activity against multidrug resistant Klebsiella pneumoniae isolate 14 by broth dilution method; assay type: functional
[27] = system: Klebsiella aerogenes; assay: Antimicrobial activity against multidrug resistant Enterobacter aerogenes isolate 25 by broth dilution method; assay type: functional
[28] = system: Escherichia coli; assay: microbe, parasite or virus in culture; settings: ATCC 35218
Description: Antimicrobial activity against multidrug resistant Escherichia coli ATCC 35218 harboring pDrive plasmid by broth dilution method

[29] = system: Klebsiella aerogenes; assay: Antimicrobial activity against multidrug resistant Enterobacter aerogenes isolate 2 by broth dilution method; assay type: functional
[30] = system: Klebsiella aerogenes; assay: Antimicrobial activity against multidrug resistant Enterobacter aerogenes isolate 22 by broth dilution method; assay type: functional
[31] = system: Klebsiella aerogenes; assay: Antimicrobial activity against multidrug resistant Enterobacter aerogenes isolate 17 by broth dilution method; assay type: functional
[32] = system: Klebsiella pneumoniae; assay: Antimicrobial activity against multidrug resistant Klebsiella pneumoniae isolate 5 by broth dilution method; assay type: functional
[33] = system: Klebsiella aerogenes; assay: Antimicrobial activity against multidrug resistant Enterobacter aerogenes isolate 7 by broth dilution method; assay type: functional
[34] = system: Klebsiella aerogenes; assay: Antimicrobial activity against multidrug resistant Enterobacter aerogenes isolate 18 by broth dilution method; assay type: functional
[35] = system: Klebsiella pneumoniae; assay: Antimicrobial activity against multidrug resistant Klebsiella pneumoniae isolate 8 by broth dilution method; assay type: functional
[36] = system: Klebsiella aerogenes; assay: Antimicrobial activity against multidrug resistant Enterobacter aerogenes isolate 9 by broth dilution method; assay type: functional
[37] = system: Klebsiella pneumoniae; assay: Antimicrobial activity against multidrug resistant Klebsiella pneumoniae isolate 9 by broth dilution method; assay type: functional
[38] = system: Klebsiella pneumoniae; assay: Antimicrobial activity against multidrug resistant Klebsiella pneumoniae isolate 16 by broth dilution method; assay type: functional
[39] = system: Klebsiella aerogenes; assay: Antimicrobial activity against multidrug resistant Enterobacter aerogenes isolate 24 by broth dilution method; assay type: functional
[40] = system: Klebsiella pneumoniae; assay: Antimicrobial activity against multidrug resistant Klebsiella pneumoniae isolate 15 by broth dilution method; assay type: functional
[41] = system: Klebsiella pneumoniae; assay: Antimicrobial activity against multidrug resistant Klebsiella pneumoniae ATCC 11296 by broth dilution method; assay type: functional
[42] = system: Klebsiella aerogenes; assay: Antimicrobial activity against multidrug resistant Enterobacter aerogenes isolate 10 by broth dilution method; assay type: functional
[43] = system: Klebsiella pneumoniae; assay: Antimicrobial activity against multidrug resistant Klebsiella pneumoniae isolate 1 by broth dilution method; assay type: functional
[44] = system: Klebsiella aerogenes; assay: Antimicrobial activity against multidrug resistant Enterobacter aerogenes isolate 19 by broth dilution method; assay type: functional
[45] = system: Klebsiella pneumoniae; assay: Antimicrobial activity against multidrug resistant Klebsiella pneumoniae isolate 13 by broth dilution method; assay type: functional
[46] = system: Klebsiella aerogenes; assay: Antimicrobial activity against multidrug resistant Enterobacter aerogenes ATCC 15038 harboring pDrive plasmid expressing ampC gene by broth dilution method; assay type: functional
[47] = system: Escherichia coli; assay: microbe, parasite or virus in culture; settings: ATCC 35218; remark: listed apart in the source
Description: Antimicrobial activity against multidrug resistant Escherichia coli ATCC 35218 harboring pDrive plasmid expressing ampC gene by broth dilution method

[48] = system: Escherichia coli; assay: microbe, parasite or virus in culture; settings: DH5[alpha]; remark: listed apart in the source
Description: Antimicrobial activity against multidrug resistant Escherichia coli DH5[alpha] by broth dilution method

[49] = system: Klebsiella aerogenes; assay: Antimicrobial activity against multidrug resistant Enterobacter aerogenes isolate 5 by broth dilution method; assay type: functional
[50] = system: Klebsiella pneumoniae; assay: Antimicrobial activity against multidrug resistant Klebsiella pneumoniae isolate 4 by broth dilution method; assay type: functional
[51] = system: Klebsiella aerogenes; assay: Antimicrobial activity against multidrug resistant Enterobacter aerogenes isolate 13 by broth dilution method; assay type: functional
[52] = system: Klebsiella aerogenes; assay: Antimicrobial activity against multidrug resistant Enterobacter aerogenes isolate 3 by broth dilution method; assay type: functional
[53] = system: Escherichia coli; assay: microbe, parasite or virus in culture; settings: DH5[alpha]; remark: listed apart in the source
Description: Antimicrobial activity against multidrug resistant Escherichia coli DH5[alpha] harboring pACM204 plasmid by broth dilution method

[54] = system: Klebsiella aerogenes; assay: Antimicrobial activity against multidrug resistant Enterobacter aerogenes ATCC 15038 by broth dilution method; assay type: functional
[55] = system: Klebsiella pneumoniae; assay: Antimicrobial activity against multidrug resistant Klebsiella pneumoniae isolate 6 by broth dilution method; assay type: functional

## CC(C)(O/N=C(\C(=O)N[C@@H]1C(=O)N2C(C(=O)[O-])=C(C[n+]3ccccc3)CS[C@H]12)c1csc(N)n1)C(=O)O [CEFTAZIDIME]
[1]
  MIC: > 2050 µg/mL
[2]
  MIC: 256 µg/mL (≈ 468 µM)
[3]
  MIC: > 2050 µg/mL
[4]
  MIC: > 2050 µg/mL
[5]
  MIC: 0.5 µg/mL (≈ 0.915 µM)
[6]
  MIC: > 2050 µg/mL
[7]
  MIC: > 2050 µg/mL
[8]
  MIC: > 2050 µg/mL
[9]
  MIC: > 2050 µg/mL
[10]
  MIC: 32 µg/mL (≈ 58.5 µM)
[11]
  MIC: > 2050 µg/mL
[12]
  MIC: > 2050 µg/mL
[13]
  MIC: > 2050 µg/mL
[14]
  MIC: 2050 µg/mL (≈ 3750 µM)
[15]
  MIC: 1020 µg/mL (≈ 1870 µM)
[16]
  MIC: > 2050 µg/mL
[17]
  MIC: > 2050 µg/mL
[18]
  MIC: 2 µg/mL (≈ 3.66 µM)
[19]
  MIC: > 2050 µg/mL
[20]
  MIC: 16 µg/mL (≈ 29.3 µM)
[21]
  MIC: 64 µg/mL (≈ 117 µM)
[22]
  MIC: > 2050 µg/mL
[23]
  MIC: 2050 µg/mL (≈ 3750 µM)
[24]
  MIC: 0.125 µg/mL (≈ 0.229 µM)
[25]
  MIC: > 2050 µg/mL
[26]
  MIC: 16 µg/mL (≈ 29.3 µM)
[27]
  MIC: > 2050 µg/mL
[28]
  MIC: 0.5 µg/mL (≈ 0.915 µM)
[29]
  MIC: > 2050 µg/mL
[30]
  MIC: > 2050 µg/mL
[31]
  MIC: > 2050 µg/mL
[32]
  MIC: > 2050 µg/mL
[33]
  MIC: > 2050 µg/mL
[34]
  MIC: 1020 µg/mL (≈ 1870 µM)
[35]
  MIC: > 2050 µg/mL
[36]
  MIC: > 2050 µg/mL
[37]
  MIC: > 2050 µg/mL
[38]
  MIC: 2050 µg/mL (≈ 3750 µM)
[39]
  MIC: > 2050 µg/mL
[40]
  MIC: > 2050 µg/mL
[41]
  MIC: 0.5 µg/mL (≈ 0.915 µM)
[42]
  MIC: > 2050 µg/mL
[43]
  MIC: 2050 µg/mL (≈ 3750 µM)
[44]
  MIC: > 2050 µg/mL
[45]
  MIC: 16 µg/mL (≈ 29.3 µM)
[46]
  MIC: 64 µg/mL (≈ 117 µM)
[47]
  MIC: 16 µg/mL (≈ 29.3 µM)
[48]
  MIC: 2 µg/mL (≈ 3.66 µM)
[49]
  MIC: > 2050 µg/mL
[50]
  MIC: > 2050 µg/mL
[51]
  MIC: > 2050 µg/mL
[52]
  MIC: > 2050 µg/mL
[53]
  MIC: 32 µg/mL (≈ 58.5 µM)
[54]
  MIC: 0.25 µg/mL (≈ 0.457 µM)
[55]
  MIC: 32 µg/mL (≈ 58.5 µM)

## CO/N=C(\C(=O)N[C@@H]1C(=O)N2C(C(=O)[O-])=C(C[N+]3(C)CCCC3)CS[C@H]12)c1csc(N)n1
[1]
  MIC: 128 µg/mL (≈ 266 µM)
[2]
  MIC: 4 µg/mL (≈ 8.32 µM)
[3]
  MIC: 64 µg/mL (≈ 133 µM)
[4]
  MIC: 64 µg/mL (≈ 133 µM)
[5]
  MIC: 0.25 µg/mL (≈ 0.52 µM)
[6]
  MIC: 64 µg/mL (≈ 133 µM)
[7]
  MIC: 16 µg/mL (≈ 33.3 µM)
[8]
  MIC: 64 µg/mL (≈ 133 µM)
[9]
  MIC: 128 µg/mL (≈ 266 µM)
[10]
  MIC: 32 µg/mL (≈ 66.6 µM)
[11]
  MIC: 32 µg/mL (≈ 66.6 µM)
[12]
  MIC: 64 µg/mL (≈ 133 µM)
[13]
  MIC: 64 µg/mL (≈ 133 µM)
[14]
  MIC: 64 µg/mL (≈ 133 µM)
[15]
  MIC: 2 µg/mL (≈ 4.16 µM)
[16]
  MIC: 64 µg/mL (≈ 133 µM)
[17]
  MIC: 64 µg/mL (≈ 133 µM)
[18]
  MIC: 0.5 µg/mL (≈ 1.04 µM)
[19]
  MIC: 64 µg/mL (≈ 133 µM)
[20]
  MIC: 16 µg/mL (≈ 33.3 µM)
[21]
  MIC: 0.25 µg/mL (≈ 0.52 µM)
[22]
  MIC: 128 µg/mL (≈ 266 µM)
[23]
  MIC: 64 µg/mL (≈ 133 µM)
[24]
  MIC: 0.03 µg/mL (≈ 0.0624 µM)
[25]
  MIC: 32 µg/mL (≈ 66.6 µM)
[27]
  MIC: 64 µg/mL (≈ 133 µM)
[28]
  MIC: 0.5 µg/mL (≈ 1.04 µM)
[29]
  MIC: 32 µg/mL (≈ 66.6 µM)
[30]
  MIC: 64 µg/mL (≈ 133 µM)
[31]
  MIC: 64 µg/mL (≈ 133 µM)
[32]
  MIC: 64 µg/mL (≈ 133 µM)
[33]
  MIC: 64 µg/mL (≈ 133 µM)
[34]
  MIC: 32 µg/mL (≈ 66.6 µM)
[35]
  MIC: 64 µg/mL (≈ 133 µM)
[36]
  MIC: 32 µg/mL (≈ 66.6 µM)
[37]
  MIC: 64 µg/mL (≈ 133 µM)
[38]
  MIC: 64 µg/mL (≈ 133 µM)
[39]
  MIC: 128 µg/mL (≈ 266 µM)
[40]
  MIC: 32 µg/mL (≈ 66.6 µM)
[41]
  MIC: 0.125 µg/mL (≈ 0.26 µM)
[42]
  MIC: 16 µg/mL (≈ 33.3 µM)
[43]
  MIC: 64 µg/mL (≈ 133 µM)
[44]
  MIC: 64 µg/mL (≈ 133 µM)
[45]
  MIC: 2 µg/mL (≈ 4.16 µM)
[46]
  MIC: 32 µg/mL (≈ 66.6 µM)
[47]
  MIC: 32 µg/mL (≈ 66.6 µM)
[48]
  MIC: 0.125 µg/mL (≈ 0.26 µM)
[49]
  MIC: 64 µg/mL (≈ 133 µM)
[50]
  MIC: 64 µg/mL (≈ 133 µM)
[51]
  MIC: 64 µg/mL (≈ 133 µM)
[52]
  MIC: 16 µg/mL (≈ 33.3 µM)
[53]
  MIC: 0.25 µg/mL (≈ 0.52 µM)
[54]
  MIC: 0.03 µg/mL (≈ 0.0624 µM)
[55]
  MIC: 16 µg/mL (≈ 33.3 µM)
